According to US20110105380A1, “Protection of Nano-Scale Particles from Immune Cell Uptake” (THE TRUSTEES OF THE UNIVERSITY OF PENNSYLVANIA, priority 2009, published 2011):
Several values for one entry are separate records, joined by “and”; a condition that tells them apart may be missing. Equal entries are not always repeated. Marks after values point to notes of the source that are not given here. Values belong to the molecule of their own block, whether it stands above or below them.

Experiments:
THP-1 macrophages [1] = experiment: SHP-1 inhibitor effect on phagocytosis of IgG-opsonized particles by THP-1 macrophages; assay type: cell-based, human
Protocol: FIG. 16, comprising FIG. 16A-16D, illustrates CD47-SIRPα signaling pathway from SHP-1 to myosin. Phagocytosis of IgG-opsonized particles with or without human CD47 of 100 nm particles (FIG. 16A) and 1.1 μm particles (FIG. 16B) were treated with an SHP-1 inhibitor (NSC-87877) at 62.5 nM and its effects were determined by the ratio of ingested particles per THP-1 phagocyte. The number of particles ingested was shown based on 200 phagocytes counted (n≧3, ±SD). The inset depicts the concentration dependence of NSC-87877 effect on particle uptake. Treatment of blebbistatin in THP-1 macrophages during phagocytosis of IgG-opsonized 100 nm particles (FIG. 16C) and 1.1 μm particles (FIG. 16D) depict inhibition of phagocytosis.
For phagocytosis assays with CD47 attached particles at 100 nm to 1.1 μm diameter were IgG-opsonized. THP-1 macrophage, PMA activated were treated with 0-0.5 μM NSC-87877 an SHP-1 Inhibitor (gift from Frank L. Conlon) 5 minutes prior to the addition of IgG-opsonized particles. Phagocytosis assay occurred at 37° C. for 45 minutes and then fixed for 5 minutes with 5% formaldehyde as described for the phagocytosis assay (Fisher Scientific).
To confirm the correlation between CD47 affect on inhibiting phagocytosis of both nano and micro sized particles, blocked SHP-1 should result in nullifying the CD47 signal. In order to specifically block SHP-1, an inhibitor NSC-87877 was used with a reported high specificity to SHP-1 (Chen et al., 2006, Mol. Pharmacol. 70(2):562-70; Langdon et al., 2007, Development 134(22):4119-30). […] The uptake of these particles was measured as the number of particles ingested per phagocyte.

SHP-1 = SHP-1 (Homo sapiens, UniProt P29350); settings: Chen et al., 2006; read-out: reported IC50 for SHP-1; cited from earlier work
[2] = molecular target: human CD47 on human red blood cells (human) (UniProt Q08722); experiment: cell-based or functional assay
THP-1 macrophages [3] = experiment: Phagocytosis of IgG-opsonized streptavidin beads with or without hCD47 by THP-1 macrophages; assay type: cell-based, human; settings: for Ki (minimum hCD47 density to inhibit uptake): IgG-opsonized
Protocol: (§1) The extracellular immunoglobulin-like domains of human CD47 (hCD47) was recombinantly expressed with a spacer domain (Brown et al., 1994, Protein Eng. 7:515-21; Brown et al., 1998, J. Exp. Med. 188:2083-90) plus a C-terminal biotinylation site. […] The beads were opsonized by pretreatment with anti-streptavidin to again induce FcR-mediated phagocytosis (for 45 minutes at 37° C.), and non-engulfed beads were detected with a flourescein anti-Fc against the IgG-opsonin. The number of adherent IgG-opsonized beads per phagocyte was independent of hCD47 (not shown).
For phagocytosis assays, macrophages were plated in 4 cm^2, or 2 cm^2 Lab-Tek II Chambered Coverglass (Nalge Nunc International, Naperville, Ill.) at 1.5×10^5/cm^2. Streptavidin polystyrene beads of different radius: 3.5 μm, 1.1 μm, 160 nm (Spherotech) and 100 nm (Ademtech) were added to macrophages at a ratio of 2:1, 20:1, 277:1, and 2206:1 respectively and incubate at 37° C. for 45 min. […] Non-phagocytosed beads were washed with PBS. Cells were fixed with 5% formaldehyde (Fisher Scientific) for 5 minutes, followed by immediate replacement with PBS. For differentiation of non-internalized beads, beads were labeled with a primary antibody, rabbit anti-streptavidin (Sigma) at 1:1000 in PBS for 20 min at 25° C. A second antibody, anti-rabbit R-PE (Sigma) was added at 1:1000 in PBS to the cells and incubated for an additional 20 minutes at 25° C. Cells were then washed with PBS/0.4% BSA and then quantified by light and fluorescent microscopy. At least 200 cells were scored per well and experiments were repeated at least three times.
For stimulated phagocytosis assays, beads with or without CD47 were incubated with rabbit anti-streptavidin as the IgG opsonin. Beads were opsonized at a concentration 1:1000 for 30 min at 25° C. Opsonized beads were washed 2× and resuspended in 50 μl of PBS/0.4% BSA. Phagocytes were washed with PBS and uningested beads were labeled as described above.
For cytoskeletal involvement at the phagocytic synapse, streptavidin beads opsonized with rabbit anti-streptavidin FITC. Opsonized beads of different sizes were added to THP-1 cells, PMA treated and immediately placed at 4° C. for 10 min to synchronize phagocytosis. […] For studies involving blebbistatin (EMD Biosciences), macrophages were treated for 10 min at 4° C. prior to temperature increase to 37° C. or for 45 min and 37° C. Macrophages treated with DMSO were used to verify no solvent effects.
Beads were opsonized at saturating densities of IgG, and over a 20-fold range of CD47 densities, the number of internalized beads per THP-1 was measured. […] The normal level of CD47 density found on human RBC (Subramanian et al., 2006, Blood 107(6):2548-2556) was indicated by the vertical bars and humans with certain Rhnull phenotypes with reduced levels of CD47 (Mouro-Chanteloup et al., 2003, Blood 101 (1):338-344; Arndt et al., 2004, Br. J. Haematol. 125(3):412-4) was indicated by the vertical bars. The minimum number of CD47 inhibition appears to be consistent across a 30-fold particle size range as depicted by the vertical bars.

[4] = test system: human peripheral blood monocytes; experiment: Phagocytosis of hCD47 beads by human peripheral blood monocytes; assay type: cell-based; settings: FIG. 6D
Protocol: FIG. 6, comprising […], illustrates that human-CD47 is sufficient to inhibit phagocytosis. FIG. 6A depicts streptavidin beads coated with both anti-streptavidin IgG as the opsonin and biotinylated human-CD47. Phagocytosis of beads by THP-1 cells was assessed in DIC and fluorescence with non-ingested beads visible with rabbit anti-streptavidin plus a second, goat anti-rabbit antibody. The scale bars are 10 μm. […] Inset bar graph compares to inhibited phagocytosis of uncoated beads after 10 min pretreatment of THP-1 cells with blebbistatin (50 μM). FIG. 6C depicts inhibition of phagocytosis depends on density of human-CD47 on beads. FIG. 6D depicts a bar graph comparing hCD47 inhibition of phagocytosis in peripheral blood monocytes.
as §1, with “shown). […]” for “shown).”

THP-1 macrophages [5] = experiment: Phagocytosis of IgG-opsonized streptavidin beads with or without hCD47 by THP-1 macrophages; assay type: cell-based, human; settings: particle radius 3.4 μm
[6] = 100 nm particles, NSC-87877 62.5 nM

human CD47 on human red blood cells (human), sequence (Q08722 other isoform, or with tags, fused parts or gaps limits assumed): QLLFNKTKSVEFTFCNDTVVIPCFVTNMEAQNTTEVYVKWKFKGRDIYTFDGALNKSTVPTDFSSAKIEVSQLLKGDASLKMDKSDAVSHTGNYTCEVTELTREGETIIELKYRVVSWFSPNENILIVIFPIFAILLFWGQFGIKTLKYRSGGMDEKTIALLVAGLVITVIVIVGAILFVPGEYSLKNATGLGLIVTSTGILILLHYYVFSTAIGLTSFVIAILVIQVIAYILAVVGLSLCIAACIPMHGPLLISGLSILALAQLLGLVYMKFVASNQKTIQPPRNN
SHP-1, sequence (P29350 whole entry): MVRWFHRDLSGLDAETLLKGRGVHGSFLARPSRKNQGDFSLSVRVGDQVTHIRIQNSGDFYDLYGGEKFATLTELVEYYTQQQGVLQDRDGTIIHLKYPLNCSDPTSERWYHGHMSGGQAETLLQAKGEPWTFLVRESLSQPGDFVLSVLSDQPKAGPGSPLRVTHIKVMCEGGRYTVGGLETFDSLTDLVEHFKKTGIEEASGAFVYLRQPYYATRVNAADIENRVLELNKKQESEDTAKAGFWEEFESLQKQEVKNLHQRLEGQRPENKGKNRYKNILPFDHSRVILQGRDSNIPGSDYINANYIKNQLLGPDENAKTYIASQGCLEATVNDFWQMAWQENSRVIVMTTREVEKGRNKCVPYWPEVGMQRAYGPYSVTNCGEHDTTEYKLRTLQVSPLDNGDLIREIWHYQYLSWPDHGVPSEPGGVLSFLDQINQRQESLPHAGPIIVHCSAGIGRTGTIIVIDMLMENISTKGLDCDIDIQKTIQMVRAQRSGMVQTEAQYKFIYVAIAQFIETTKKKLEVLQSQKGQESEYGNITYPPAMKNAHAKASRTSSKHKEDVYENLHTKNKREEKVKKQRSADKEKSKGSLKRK

Molecule: O=S(=O)(O)c1ccc2cc(N=Nc3cc(S(=O)(=O)O)c4cccnc4c3O)ccc2c1 [NSC-87877]
particles ingested per phagocyte, beads without hCD47 (THP-1 macrophages [1]; [6]): no statistical difference
particles ingested per phagocyte, hCD47 particles (THP-1 macrophages [1]; [6]): an increase of ingested particles
uptake of 1.1 μm particles coated with hCD47 (THP-1 macrophages [1]; NSC-87877, FIG. 16B): increase in uptake comparable to uncoated IgG-opsonized particles
IC50 (SHP-1): 500 nM

phagocytosis of IgG-opsonized human RBCs by human phagocytes after CD47 blocking [2]: 2 fold and 3 fold
Molecule: anti-CD47 F(ab')2 generated from monoclonal antibody B6H12

effective Ki of phagocytosis inhibition (THP-1 macrophages [3]; all particle sizes tested, micro to nano-meter beads (100 nm to 3.5 μm)): approximately 20 molecules/μm^2
effective Ki of phagocytosis inhibition (THP-1 macrophages [3]; all particle sizes tested, micro to nano-meter beads (100 nm to 3.5 μm), listed as human CD47): ~20 molecules/μm^2
effective Ki of phagocytosis inhibition (THP-1 macrophages [3]; approximately 2.1 μm beads, FIG. 6C): ≈ 20 molecules/μm^2
Ki at high opsonin (THP-1 macrophages [3]; beads opsonized at saturating densities of IgG): 20 CD47/μm^2
Ki (minimum hCD47 density to inhibit uptake) (THP-1 macrophages [3]; particle radius 1.1 μm): 20* molecules/μm^2
Ki (minimum hCD47 density to inhibit uptake) (THP-1 macrophages [3]; particle radius 100 nm): 19.9 molecules/μm^2
Ki (minimum hCD47 density to inhibit uptake) (THP-1 macrophages [3]; particle radius 160 nm): 13.6 molecules/μm^2
Ki (minimum hCD47 density to inhibit uptake) (THP-1 macrophages [5]): 27.6 molecules/μm^2
Molecule: hCD47: extracellular immunoglobulin-like domains of human CD47 recombinantly expressed with a spacer domain plus C-terminal biotinylation site, attached to streptavidin-coated beads
fraction of normal CD47 densities sufficient to inhibit phagocytosis (THP-1 macrophages [3]; relative to normal human RBC density): 10-20%
phagocytosis of beads bearing high densities of hCD47 [4]: similarly potent reduction in phagocytosis
